Source: US20260159482A1, “CRYSTAL FORM AND AMORPHOUS FORM OF CAREBASTINE P-TOLUENESULFONATE” (priority 2023, published 2026)
Counter-ions that a name gives are not always drawn. Like-named read-outs stand apart in the source and are kept apart here.

Legend:
[1] = Hygroscopicity study (weight gain at 25° C., RH 80%, 24 h); assay type: physicochemical
Description: • (1) The day prior to the test, a dry glass weighing bottle (with an outer diameter of 50 mm and a height of 15 mm) with a lid was placed in a suitable constant temperature dryer (the lower part of which holds a saturated solution of ammonium chloride or ammonium sulphate) at 25° C.±1° C. or an artificial climate chamber (at a temperature of 25° C.±1° C. and a relative humidity of 80%±2%), and the weight (m1) of the bottle with the lid was precisely weighed. • (2) An appropriate amount of the sample to be tested was evenly laid in the weighing bottle, with a thickness of generally about 1 mm, and the weight (m2) of the bottle with the lid was precisely weighed. • (3) The weighing bottle was kept open and placed together with the lid under constant temperature and humidity for 24 h. • (4) The weighing bottle was covered with the lid, and the weight (m3) was precisely weighed. • (5) Percentage of weight gain=(m3−m2)/(m2−m1)×100%.

[2] = for AUC0-t / Cmax / T1/2 / Tmax / increase in AUC0-t compared with Comparative Example 1 / increase in AUC0-t compared with Comparative Example 2 / increase in Cmax compared with Comparative Example 1 / increase in Cmax compared with Comparative Example 2: male; for AUC0-t / Cmax / T1/2 / Tmax / Tmax compared with Comparative Example 2 / half-life (T1/2) compared with Comparative Example 2 / increase in AUC0-t compared with Comparative Example 1 / increase in AUC0-t compared with Comparative Example 2 / increase in Cmax compared with Comparative Example 1 / increase in Cmax compared with Comparative Example 2: dog, in vivo; for AUC0-t / Cmax / T1/2 / Tmax: po, 2.23 mg; for half-life (T1/2) compared with Comparative Example 1 / peak time (Tmax) compared with Comparative Example 1: vs ebastine
Description: Ebastine (Comparative Example 1), carebastine (Comparative Example 2), a crystal form of carebastine p-toluenesulfonate (Example 2) and an amorphous form of carebastine p-toluenesulfonate (Example X) were prepared into enteric capsules, respectively.
• Species: Beagle; • Level: normal level; • Animal number and gender: 8 males; • Age: […] old during grouping; • Body weight: the weight during grouping ranged from 8.90 to 10.3 kg, with an average of 10.0 kg.
Dose: in terms of carebastine, each group was dosed at equimolar dose, and appropriate amounts of compounds were weighed and filled into capsules. That is, the drug of carebastine in each capsule is 2.23 mg.
After the test compounds were filled into capsules, 2×4 crossover tests were carried out according to the table above. A 7-day elution period was counted from the start of administration. The corresponding test compounds were administered to each group in different test cycles.
All animals were fasted overnight (for 12 h or more) before each administration, and feeding was resumed 4 h after the administration. The animals had free access to drinking water.
Blood samples were collected at 0 h before administration, and at 10 min, 20 min, 30 min, 45 min, 1 h, 2 h, 3 h, 5 h, 6 h, 8 h, 10 h and 24 h after administration, for a total of 13 blood collection time points.
Approximately 2 mL of blood was collected from a forelimb vein at the set blood collection time points and placed in an EDTA-K2 anticoagulation tube. Whole blood samples were kept at room temperature for 1.5 h after the collection and then centrifuged (at 3000 g centrifugal force, 4° C.) for 10 min.
The concentration of carebastine in plasma was determined using liquid chromatography-mass spectrometry-mass spectrometry (HPLC-MS/MS).
The pharmacokinetic parameters of each group were calculated using the non-compartmental model with the WinNonlin software (version 8.3 or higher).

[3] = Stability study: influencing factors (high temperature, high humidity, light exposure), HPLC content; assay type: physicochemical; conditions: for Content, 0 day: HPLC external standard; for Content, High humidity, 30 days: high humidity (RH80%); for Content, High temperature, 30 days: high temperature (60° C.); for Content, Light exposure, 30 days: light exposure (5000 Lux)
Description: 3 parts of each of the samples, carebastine (Comparative Example 2), the crystal form of carebastine p-toluenesulfonate (Example 2), and the amorphous form of carebastine p-toluenesulfonate (Example X), were weighed and placed in a weighing bottle, respectively, and each group of samples was placed under conditions of high temperature (60° C.), high humidity (RH80%) and light exposure (5000 Lux). Then, the samples were taken for detection after 30 days.
Detection method: An appropriate amount of each sample was taken, weighed precisely, dissolved with acetonitrile and quantitatively diluted into a solution containing about 0.08 mg of sample per 1 ml. High performance liquid chromatography (HPLC) was used, with octadecylsilane-bonded silica gel as filler, water-acetonitrile (1:1) as mobile phase, a detection wavelength of 256 nm, a column temperature of 35° C. and an injection volume of 10 μl. Each sample solution was injected into the liquid chromatograph instrument, and the chromatograms were recorded. The content of carebastine was calculated by an external standard method, and the impurity content was calculated by a peak area normalization method.

AUC0-t ([2]; beagle)	Cmax ([2]; beagle)	T1/2 ([2]; beagle)	Tmax ([2]; beagle)	Content, 0 day [3]	Content, High humidity, 30 days ([3]; 30 days)	Content, High temperature, 30 days ([3]; 30 days)	Content, Light exposure, 30 days ([3]; 30 days)	Percentage of weight gain (%) [1]	half-life (T1/2) compared with Comparative Example 1 ([2]; beagle)	peak time (Tmax) compared with Comparative Example 1 ([2]; beagle)	Tmax compared with Comparative Example 2 [2]	half-life (T1/2) compared with Comparative Example 2 [2]	increase in AUC0-t compared with Comparative Example 1 ([2]; beagle)	increase in AUC0-t compared with Comparative Example 2 ([2]; beagle)	increase in Cmax compared with Comparative Example 1 ([2]; beagle)	increase in Cmax compared with Comparative Example 2 ([2]; beagle)	other results	SMILES
																	Percentage of weight gain (%) ([1]; hydrochloride): 15.9%	CC(C)(C(=O)O)c1ccc(C(=O)CCCN2CCC(OC(c3ccccc3)c3ccccc3)CC2)cc1 [Comparative Example 3, carebastine hydrochloride, reference compound]
749 ± 127 ng·h/mL	179 ± 85.7 ng/mL	4.06 ± 1.19 h	2.25 ± 0.7 h															CC(C)(C)c1ccc(C(=O)CCCN2CCC(OC(c3ccccc3)c3ccccc3)CC2)cc1 [Comparative Example 1, ebastine]
840 ± 161 ng·h/mL	191 ± 51.4 ng/mL	3.74 ± 2.02 h	0.82 ± 0.52 h	99.18%	98.11%	98.12%	87.28%	6%									content decrease under high temperature and high humidity ([3]; 30 days, high temperature and high humidity): more than 1.0%; content decrease under light exposure ([3]; 30 days, light exposure): more than 10%; content of the maximum single impurity ([3]; after 30 days of influencing factor tests, peak area normalization): more than 0.5%	CC(C)(C(=O)O)c1ccc(C(=O)CCCN2CCC(OC(c3ccccc3)c3ccccc3)CC2)cc1 [Comparative Example 2, 2-(4-(4-(4-(diphenylmethoxy)piperidine-1-yl)butyryl)phenyl)-2-methylpropanoic acid, reference compound]
				99.42%	99.42%	99.43%	99.39%	−0.1%	prolonged	significantly shorter	essentially the same	prolonged	about 55%	about 38%	about 65%	about 55%	Cmax and AUC0-t compared with Example X ([2]; beagle, vs amorphous form): slightly higher; T1/2 compared with Example X ([2]; beagle, vs amorphous form): slightly longer	CC(C)(C(=O)O)c1ccc(C(=O)CCCN2CCC(OC(c3ccccc3)c3ccccc3)CC2)cc1.Cc1ccc(S(=O)(=O)O)cc1 [Example 2, carebastine p-toluenesulfonate]
				98.59%	98.58%	98.54%	98.51%	0.3%	prolonged	significantly shorter	essentially the same	prolonged	~31%	~17%	~46%	~37%		CC(C)(C(=O)O)c1ccc(C(=O)CCCN2CCC(OC(c3ccccc3)c3ccccc3)CC2)cc1.Cc1ccc(S(=O)(=O)O)cc1 [Example X, carebastine p-toluenesulfonate]
